Reference: patent publication US6919350B2 (priority 1996, dated 2005)
“And” between values parts separate entries of the source, which are not always exact repeats. Equal values may be shown once. “Also recorded” adds a separate entry of the source. Read-outs that look alike come from different tables or passages of the source.

Assays:
[1] = target: T1, delta opioid receptor in the mouse vas deferens (Mus musculus, UniProt P32300); experiment: Electrically stimulated mouse vas deferens, delta opioid agonist potency (ED50)
T1 construct: Vasa deferentia were removed from mice; from tissue; host or cells: mouse vas deferens (isolated organ bath)
T1 sequence (P32300 whole entry): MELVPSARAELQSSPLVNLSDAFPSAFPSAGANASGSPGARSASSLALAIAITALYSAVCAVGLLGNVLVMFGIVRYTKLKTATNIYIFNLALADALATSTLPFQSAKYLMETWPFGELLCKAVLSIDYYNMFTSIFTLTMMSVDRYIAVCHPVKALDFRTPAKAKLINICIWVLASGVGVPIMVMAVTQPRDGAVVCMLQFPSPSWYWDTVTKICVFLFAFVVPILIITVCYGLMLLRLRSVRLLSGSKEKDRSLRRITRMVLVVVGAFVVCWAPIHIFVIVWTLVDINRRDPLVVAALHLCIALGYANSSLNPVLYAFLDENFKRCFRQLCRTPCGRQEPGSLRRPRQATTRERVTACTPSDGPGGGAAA

delta opioid receptor = target: T2, delta opioid receptor (Rattus norvegicus, UniProt P33533); experiment: Delta receptor binding in rat brain membranes (Delta Receptor IC50)
T2 construct: Rat (Sprague-Dawley) brain membranes were prepared; from tissue; host or cells: rat (Sprague-Dawley) brain membranes
T2 sequence (P33533 whole entry): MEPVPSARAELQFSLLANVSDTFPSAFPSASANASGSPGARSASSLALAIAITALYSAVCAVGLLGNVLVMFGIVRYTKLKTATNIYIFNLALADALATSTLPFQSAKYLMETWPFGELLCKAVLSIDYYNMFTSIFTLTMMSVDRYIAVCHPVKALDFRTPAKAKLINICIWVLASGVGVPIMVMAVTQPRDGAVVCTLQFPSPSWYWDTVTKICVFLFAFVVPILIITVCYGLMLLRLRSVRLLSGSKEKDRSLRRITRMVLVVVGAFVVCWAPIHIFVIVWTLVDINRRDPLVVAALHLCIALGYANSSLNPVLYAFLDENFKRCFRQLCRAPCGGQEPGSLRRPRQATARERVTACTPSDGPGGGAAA
Experimental: The assay procedures used for such determinations of delta receptor activity are set out below.
Inhibition of receptor binding: Rat (Sprague-Dawley) brain membranes were prepared and binding assays were performed at 24° C. for 90 minutes as described by Chang, et al. (J. Biol. Chem. 254, 2610 (1979) and Mol. Pharmacol. 16, 91 (1979)) with a filtration method (GF/C filter). Delta receptor binding assays were performed with (^3H)-(+)-4-((α-R*)-α-((2S*,5R*)-4-Allyl-2,5-dimethyl-1-piperazinyl)-3-hydroxybenzyl)-N,N-diethylbenzamide (0.1 nM), having an activity of ˜48 Ci/mmole, or with ^3H-[D-Pen^2,D-Pen^5-(enkephalin)](^3H-DPDPE, 0.1 nM) having an activity of ˜50 Ci/mmole. Non-specific binding was determined in the presence of 1 mM of the unlabeled ligand. The potency of compounds in inhibiting the binding of (^3H)-(+)-4-((α-R*)-α-((2S*,5R*)-4-Allyl-2,5-dimethyl-1-piperazinyl)-3-hydroxy-benzyl)-N,N-diethylbenzamide or ^3H-DPDPE was determined as the concentration which reduced the binding of the labeled compounds by 50 percent (Delta Receptor IC50).

[2] = target: T1, delta opioid receptor in the mouse vas deferens; experiment: Antagonist potency (pA2, Schild analysis) in electrically stimulated mouse vas deferens
Experimental: In vitro bioassays: Vasa deferentia were removed from mice and suspended between platinum electrodes with 0.5 g of tension in organ bath chambers containing a modified Krebs' buffer of the following composition (millimolar): NaCl, 118; KCl, 4.75; CaCl2, 2.6; KH2PO4, 1.20; NaHCO3, 24.5; and glucose, 11. The buffer was saturated with 95% O2/5% CO2 and kept at 37° C. Tissues were stimulated at supramaximal voltage with 10 Hz pulse trains for 400 msec.; train interval 10 seconds; and 0.5 msec pulse duration. […] The ED50 values were extrapolated from curves showing the dose concentration plotted against the response (Lord, et al., Nature 267, 495, (1977)).

rats [3] = experiment: animal or person; assay type: in vivo; settings: Rattus norvegicus, iv, read-out: ED50 to produce analgesia
in vivo = settings: rat, iv
rats [4] = settings: rat, in vivo, iv
rats [5] = experiment: Tail-pinch analgesia during alfenta infusion with delta agonist (Example 14); assay type: in vivo, rat; settings: continuous i.v. infusion of alfenta and i.v. bolus of various doses
Experimental: Analgesia was also assessed with a tail-pinch method at the same time points that blood was drawn.

[6] = inhibition of electrically induced muscle contractions, read-out: Mouse Vas Deferens ED50
[7] = rat brain membranes, radioligand 3H-[D-Pen2,D-Pen5]-(enkephalin) 0.1 nM, read-out: Delta Receptor IC50
[8] = blockade of inhibitory effect of [D-Ala2,D-Leu5] enkephalin (footnote b)

Molecule	EC50 [1, 6]	IC50 (delta opioid receptor; [7])	further results
cis-4-(α-(3,5-Dimethyl-4-(methylallyl)-1-piperazinyl)-3-hydroxybenzyl)-N,N-diethylbenzamide [Compound 24]	20 nM	–	–
CCN(C)C(=O)c1ccc([C@H](c2cccc(O)c2)N2C[C@H](C)N(C)C[C@@H]2C)cc1 [Compound 16, N-ethyl-4-((αR)-3-hydroxy-α-((2S,5S)-2,4,5-trimethyl-1-piperazinyl)benzyl)-N-methylbenzamide]	–	3.1 nM	Kb [2, 8]: 63.1 nM
CCN(CC)C(=O)c1ccc([C@@H](c2cccc(O)c2)N2C[C@H](C)N(C)C[C@@H]2C)cc1 [Compound 14, (+)N,N-Diethyl-4-(3-hydroxy-(αS)-α-((2S,5S)-2,4,5-trimethyl-1-piperazinyl)benzyl)-benzamide]	–	2 nM	Kb [2, 8]: 79.4 nM
CCN(CC)C(=O)c1ccc([C@H](c2cccc(O)c2)N2C[C@@H](C)NC[C@H]2C)cc1 [Compound 7, N,N-Diethyl-4-((αR)-3-hydroxy-α-((2R,5R)-2,5-dimethyl-1-piperazinyl)benzyl)benzamide]	560 nM	1.1 nM	–
C=CCN1C[C@H](C)N([C@H](c2ccccc2)c2cccc(O)c2)C[C@H]1C (relative stereo) [Compound 20, (±)-3-((αR*)-α-((2S*,5R*)-4-Allyl-2,5-dimethyl-1-piperazinyl)benzyl)phenol]	78 nM	1.3 nM	–
3-((αR)-α-((2S,5S)-4-Allyl-2,5-dimethyl-1-piperazinyl)benzyl)phenol and 3-((αS)-α-((2S,5S)-4-Allyl-2,5-dimethyl-1-piperazinyl)benzyl)phenol [Compound 9]	450 nM	1.5 nM	–
C=CCN1C[C@H](C)N([C@@H](c2cccc(O)c2)c2cccc(C(=O)N(C)c3cccc(F)c3)c2)C[C@H]1C [Compound 3290W93]	–	–	ED50 (rats [3]): 0.08 mg/kg; ED50 (in vivo): 2 mg/kg
CCN(CC)C(=O)c1ccc([C@H](c2cccc(O)c2)N2C[C@H](C)N(C)C[C@H]2C)cc1 (relative stereo) [Compound 10, (±)-N,N-diethyl-4-((αR*)-3-hydroxy-α-((2R*,5S*)-2,4,5-trimethyl-1-piperazinyl)benzyl)benzamide]	90 nM	1.1 nM	melting point: 220 to 221 °C
C=CCN1C[C@H](C)N([C@H](c2ccc(C(=O)N(C)CC)cc2)c2cccc(O)c2)C[C@@H]1C [Compound 8, 4-((αR)-α-((2S,5S)-4-Allyl-2,5-dimethyl-1-piperazinyl)-3-hydroxybenzyl)-N-ethyl-N-methylbenzamide]	30 nM	0.86 nM	–
C=CCN1C[C@H](C)N([C@H](c2ccc(C(=O)N(CC)CC)cc2)c2cccc(O)c2)C[C@H]1C [BW373U86, (+)-4-((αR)-α-((2S,5R)-4-allyl-2,5-dimethyl-1-piperazinyl)-3-hydroxybenzyl)-N,N-diethylbenzamide]	–	–	effect on alfenta-induced respiratory depression (blood pCO2) (rats [4]): dose dependently reduced the level of pCO2; also recorded: blocks the respiratory depression; effect on analgesia induced by alfenta (tail-pinch) (rats [5]): did not significantly affect the analgesia
C=CCN1C[C@H](C)N([C@H](c2ccc(C(N)=O)cc2)c2cccc(O)c2)C[C@H]1C (relative stereo) [Compound 21, (±)-4-((αR*)-α-((2S*,5R*)-4-Allyl-2,5-dimethyl-1-piperazinyl)-3-hydroxybenzyl)benzamide]	44 nM	1.6 nM	–
C/C=C\CN1[C@H](C)CN(C(c2ccc(C(=O)N(CC)CC)cc2)c2cccc(O)c2)C[C@@H]1C (relative stereo) [Compound 17, cis-4-(α-(4-((Z)-2-butenyl)-3,5-dimethyl-1-piperazinyl)-3-hydroxybenzyl)-N,N-diethylbenzamide]	–	1.5 nM	Kb ([2]; blockade of inhibitory effect of (±)-4-((α-R*)-α-((2S*,5R*)-4-allyl-2,5-dimethyl-1-piperazinyl)-3-hydroxybenzyl)-N,N-diethylbenzamide (footnote c)): 6.31 nM
C=CCN1C[C@H](C)N([C@@H](c2cccc(O)c2)c2cccc(C(N)=O)c2)C[C@H]1C (relative stereo) [Compound 6, (±)-3-((αR*)-α-((2S*,5R*)-4-Allyl-2,5-dimethyl-1-piperazinyl)-3-hydroxybenzyl)-benzamide]	25 nM	4 nM	–
C=CCN1[C@H](C)CN(C(c2ccc(C(=O)N(CC)CC)cc2)c2cccc(O)c2)C[C@@H]1C (mixture of isomers) [Compound 23, (±)-cis-4-(α-(4-Allyl-3,5-dimethyl-1-piperazinyl)-3-hydroxybenzyl)-N,N-diethylbenzamide]	42 nM	3.3 nM	–
C=CCN1C[C@@H](C)N([C@@H](c2ccc(C(=O)N(CC)CC)cc2)c2cccc(O)c2)C[C@H]1C [Compound 2, (−)-4-((αS)-α-((2R,5R)-4-Allyl-2,5-dimethyl-1-piperazinyl)-3-hydroxybenzyl)-N,N-diethylbenzamide]	–	–	IC50 (delta opioid receptor): 1 nM
C=CCN1C[C@H](C)N([C@H](c2ccc(C(N)=O)cc2)c2cccc(O)c2)C[C@@H]1C [Compound 5]	260 nM	1.6 nM	–
CCN(CC)C(=O)c1ccc([C@H](c2cccc(O)c2)N2C[C@@H](C)N(C)C[C@H]2C)cc1 [Compound 15, N,N-diethyl-4-(3-hydroxy-(αR)-α-((2R,5R)-2,4,5-trimethyl-1-piperazinyl)benzyl)benzamide]	–	2.8 nM	–
CCN(CC)C(=O)c1ccc([C@H](c2cccc(O)c2)N2C[C@H](C)NC[C@H]2C)cc1 (relative stereo) [Compound 22, (±)-4-((αR*)-α-((2R*,5S*)-2,5-Dimethyl-1-piperazinyl)-3-hydroxybenzyl)-N,N-diethylbenzamide]	4400 nM	0.7 nM	–
C[C@H]1CN([C@H](c2ccc(C(=O)N3CCCC3)cc2)c2cccc(O)c2)[C@@H](C)CN1C [Compound 13, 3-((αR)-4-(1-pyrrolidinylcarbonyl)-α-((2S,5S)-2,4,5-trimethyl-1-piperazinyl)benzyl)phenol]	200 nM	0.3 nM and 0.8 nM	–
C=CCN1C[C@@H](C)N([C@H](c2ccc(C(=O)N(CC)CC)cc2)c2cccc(O)c2)C[C@H]1C (stereo in doubt) [Compound 1, (−)-4-((αR)-α-((2R,5R)-4-allyl-2,5-dimethyl-1-piperazinyl)-3-hydroxybenzyl)-N,N-diethylbenzamide]	–	–	IC50 (delta opioid receptor): 2 nM; EC50 [1]: 43 nM
CCCN1C[C@@H](C)N([C@@H](c2ccc(C(=O)N(CC)CC)cc2)c2cccc(O)c2)C[C@H]1C [Compound 4, (−)-4-((αS)-α-((2R,5R)-2,5-Dimethyl-4-propyl-1-piperazinyl)-3-hydroxybenzyl)-N,N-diethylbenzamide]	> 1000 nM	–	–
C[C@H]1CN([C@H](c2ccc(C(=O)N3CCCCC3)cc2)c2cccc(O)c2)[C@@H](C)CN1C [Compound 12, 3-((αR)-4-(piperidinocarbonyl)-α-((2S,5S)-2,4,5-trimethyl-1-piperazinyl)benzyl)phenol]	250 nM	1.2 nM	–
C=CCN1C[C@@H](C)N([C@H](c2ccc(S(=O)(=O)N(C)C)cc2)c2cccc(O)c2)C[C@@H]1C (relative stereo) [Compound 19, (±)-4-((αR*)-α-((2R*,5S*)-4-Allyl-2,5-dimethyl-1-piperazinyl)-3-hydroxybenzyl)-N,N-dimethylbenzenesulfonamide]	37 nM	2.6 nM	–
C=CCN1C[C@@H](C)N([C@H](c2ccc(S(C)(=O)=O)cc2)c2cccc(O)c2)C[C@@H]1C (relative stereo) [Compound 18, (±)-3-((αR*)-α-((2R*,5S*)-4-allyl-2,5-dimethyl-1-piperazinyl)-4-(methylsulfonyl)benzyl)phenol]	250 nM	1.3 nM	–
